Experimental data published in patent US7790781B2 (priority 2005, dated 2010).

Assays:
[1] = Water solubility of acidic compound at 20° C.
Excerpt: This object is achieved pursuant to the invention by a condensation-crosslinkable dental material having a composition containing at least one alkoxysilyl-functional and/or hydroxysilyl-functional polyether a), at least one catalyst b), and optionally water c), with the at least one catalyst b) being selected from the group consisting of bases, salts, and any combinations thereof.

[2] = pKa of acidic compound in water
Excerpt: If polyfunctional acids are used, it is sufficient for at least one of the pKa values, preferably the pKa1 of the polyfunctional acid used, to lie within the aforementioned ranges.

[3] = Polyether solubility of acidic compound (20° C.); conditions: organic solvent or mixture

| Water solubility [1] | SMILES | solubility ([1]; 20 °C, water) | pKa [2] | solubility [3] |
| --- | --- | --- | --- | --- |
|  | O=C1CC(=O)NC(=O)N1 [barbituric acid] | 142 mg/mL | 4.01 | ≤ 2 mg/mL |
| about 750 g/l | Cc1ccc(S(=O)(=O)O)cc1 [p-toluenesulfonic acid] |  |  |  |
